The assay concerns the target skeletal myofibrils (myosin ATPase). The assay is described as follows: Skeletal Myofibril ATPase Assay. The format is biochemical. As for the experimental part:
Example 12. Skeletal Myofibril ATPase Assay
Overview: Myosin ATPase activity is assessed by using a coupled reaction system, in which ADP generated by the myosin ATPase function is coupled to the disappearance of NADH through the pyruvate kinase/lactate dehydrogenase (PK-LDH) system. ATPase activity produces ADP, which is used as a substrate for PK to produce pyruvate and regenerate ATP. The pyruvate is then used as a substrate by LDH to oxidize NADH to NAD+. The rate of the reaction is monitored through the time-dependent disappearance of NADH using absorbance at 340 nm. Inhibition of ATPase activity by the assayed compounds is indicated by a reduced rate of NADH loss, relative to vehicle-treated controls, over the experimental time window. To assess the selectivity of the assayed compounds for skeletal myofibrils, the compounds are counter-screened in cardiac myofibrils.
Materials: The following stock solutions and reagents were used in the Skeletal Myofibril ATPase Assay:
Stock Solutions of pCa buffer. Combine PIPES, CaCl2, and EGTA solutions with 70 mL of water. Adjust pH to 7.0 and bring final volume to 100 mL.
Buffer A & Buffer B. Buffers were stored on ice until use.
Skeletal Myofibril ATPase Assay Procedure: BSA, ATP, NADH, PEP, and DTT solutions were thawed at room temperature, then transferred to ice. Pellet-frozen myofibrils were transferred with approximately twice the required volume into a sufficiently large tube and capped. Myofibrils were thawed by rolling in a water bath for approximately 15 min at room temperature and cooled on ice. Buffers A and B were prepared by adjusting volumes as necessary for required number of wells and stored on ice. 0.5 μL of the compounds to be assayed were added into wells. 25 μL of Buffer A was dispensed into the wells, followed by 25 μL of Buffer B. The wells were measured for absorbance at 340 nm, using a kinetic protocol in which the wells are read every 1.5-2 min for 45 min. The slope of the data was approximated by subtracting the minimum absorbance value from the maximum value for each well. This was accomplished either in the SoftMax Pro software or in a spreadsheet program such as Excel. Using GraphPad Prism 8.0, the data was normalized by assigning a value of 100% to the 1% DMSO vehicle wells. Typically, a normalized 0% value was simply assigned to a (Max−Min) value of 0. The normalized data was fit to a Four Parameter Logistic sigmoidal equation, constraining the bottom to be 0 or greater. Compounds of Table 1, 2, and 3 were tested and results of the assay appear in Tables 4a-4c. A=IC50 is less than or equal to 10 μM; B═IC50 is greater than 10 μM and less than 100 μM; C═IC50 is greater than 100 μM.

By IC50 is commonly meant the concentration that gives 50% inhibition. Read a high IC50 as lower potency. With `CCNC(=O)Cn1nc(-c2cnc(OCCOC(F)(F)F)nc2)ccc1=O` [Compound I-49, N-ethyl-2-(6-oxo-3-(2-(2-(trifluoromethoxy)ethoxy)pyrimidin-5-yl)pyridazin-1(6H)-yl)acetamide], the IC50 (Table 4A) was in the range of 10 to 100 µM.

Turning to `COc1ccc(-c2ccc(=O)n(CC(=O)NCc3ccco3)n2)cc1` [IIIb-37, N-(furan-2-ylmethyl)-2-(3-(4-methoxyphenyl)-6-oxopyridazin-1(6H)-yl)acetamide], the IC50 (Table 4C) lay in the range of 10 to 100 µM. In the case of `CCCCNC(=O)Cn1nc(-c2ccc(OC(F)F)cc2)ccc1=O` [II-17, N-butyl-2-(3-(4-(difluoromethoxy)phenyl)-6-oxopyridazin-1(6H)-yl)acetamide], the IC50 (Table 4B) is 10 to 100 µM.

As for `COc1ccc(-c2ccc(=O)n(CC(=O)NCc3ccccc3C(F)(F)F)n2)cc1` [IIIa-11, 2-(3-(4-methoxyphenyl)-6-oxopyridazin-1(6H)-yl)-N-(2-(trifluoromethyl)benzyl)acetamide], for the setting “Table 4C”, the IC50 is less than 10 µM.

As to `CCNC(=O)Cn1nc(-c2ccc(NC3COC3)nc2)ccc1=O` [Compound I-44, N-ethyl-2-(3-(6-(oxetan-3-ylamino)pyridin-3-yl)-6-oxopyridazin-1(6H)-yl)acetamide], the half-inhibitory concentration (IC50) (Table 4A) was less than 10 µM. Turning to `O=C(Cn1nc(-c2ccccc2)ccc1=O)NCCC1=CCCCC1` [IIIc-48, N-(2-(cyclohex-1-en-1-yl)ethyl)-2-(6-oxo-3-phenylpyridazin-1(6H)-yl)acetamide], for the setting “Table 4C”, the IC50 was less than 10 µM. Same read-out and setting: the value for `COc1ccc(-c2ccc(=O)n(CC(=O)NCc3ccc(F)cc3)n2)cc1` [IIIb-50, N-(4-fluorobenzyl)-2-(3-(4-methoxyphenyl)-6-oxopyridazin-1(6H)-yl)acetamide] was greater than 100 µM. The compound `COc1ccc(-c2ccc(=O)n(CC(=O)NCCC3=CCCCC3)n2)cc1` [IIIb-14, N-(2-(cyclohex-1-en-1-yl)ethyl)-2-(3-(4-methoxyphenyl)-6-oxopyridazin-1(6H)-yl)acetamide] yielded an IC50 (Table 4C) of less than 10 µM.

For the setting “Table 4C”, `COc1ccc(-c2ccc(=O)n(CC(=O)NC[C@@H]3CC4C=CC3C4)n2)cc1` (stereo partly drawn) [IIIb-39, N-(((2R)-bicyclo[2.2.1]hept-5-en-2-yl)methyl)-2-(3-(4-methoxyphenyl)-6-oxopyridazin-1(6H)-yl)acetamide] came in with an IC50 greater than 100 µM. `CCNC(=O)Cn1nc(-c2ccc(N3CCC34COC4)nc2)ccc1=O` [Compound I-19, 2-(3-(6-(6-oxa-1-azaspiro[3.3]heptan-1-yl)pyridin-3-yl)-6-oxopyridazin-1(6H)-yl)-N-ethylacetamide] showed an IC50 (Table 4A) of 10 to 100 µM.

`COc1ccc(-c2ccc(=O)n(CC(=O)NCc3ccco3)n2)cc1` [IIIb-53, N-(furan-2-ylmethyl)-2-(3-(4-methoxyphenyl)-6-oxopyridazin-1(6H)-yl)acetamide]: the IC50 (Table 4C) was greater than 100 µM. Same read-out and setting: to `CC(C)Oc1ccc(-c2ccc(=O)n(CC(=O)NCc3ccccc3Cl)n2)cc1` [IIIa-2, N-(2-chlorobenzyl)-2-(3-(4-isopropoxyphenyl)-6-oxopyridazin-1(6H)-yl)acetamide] belongs less than 10 µM. Same read-out and setting: the value for `COc1ccc(-c2ccc(=O)n(CC(=O)NCc3ccc(Cl)cc3)n2)cc1` [IIIa-17, N-(4-chlorobenzyl)-2-(3-(4-methoxyphenyl)-6-oxopyridazin-1(6H)-yl)acetamide] was less than 10 µM; that for `COc1ccc(-c2ccc(=O)n(CC(=O)Nc3ccc4c(c3)OCCO4)n2)c(F)c1` [IIIb-15, N-(2,3-dihydrobenzo[b][1,4]dioxin-6-yl)-2-(3-(2-fluoro-4-methoxyphenyl)-6-oxopyridazin-1(6H)-yl)acetamide] was less than 10 µM; that for `COc1ccc(-c2ccc(=O)n(CC(=O)NC(C)c3ccccc3Cl)n2)cc1` (stereo not drawn) [IIIa-25, N-(1-(2-chlorophenyl)ethyl)-2-(3-(4-methoxyphenyl)-6-oxopyridazin-1(6H)-yl)acetamide] was 10 to 100 µM. Same read-out and setting: the value for `CCOc1ccc(-c2ccc(=O)n(CCNC(=O)CC3CCCC3)n2)cc1` [IIIb-43, 2-cyclopentyl-N-(2-(3-(4-ethoxyphenyl)-6-oxopyridazin-1(6H)-yl)ethyl)acetamide] was greater than 100 µM; that for `COc1ccc(-c2ccc(=O)n(CC(=O)Nc3ccc(Cl)cc3Cl)n2)cc1` [IIIb-11, N-(2,4-dichlorophenyl)-2-(3-(4-methoxyphenyl)-6-oxopyridazin-1(6H)-yl)acetamide] was less than 10 µM; that for `COc1ccc(NC(=O)Cn2nc(-c3ccc(F)cc3)ccc2=O)c(OC)c1` [IIIc-31, N-(2,4-dimethoxyphenyl)-2-(3-(4-fluorophenyl)-6-oxopyridazin-1(6H)-yl)acetamide] was 10 to 100 µM. `CCNC(=O)Cn1nc(-c2cnc(OCC(F)(F)F)nc2)ccc1=O` [Compound I-8, N-ethyl-2-(6-oxo-3-(2-(2,2,2-trifluoroethoxy)pyrimidin-5-yl)pyridazin-1(6H)-yl)acetamide] displayed an IC50 (Table 4A) of less than 10 µM. Under “Table 4A”, `CCNC(=O)Cn1nc(-c2ccc(N(C)C3CCC3)nc2)ccc1=O` [Compound I-61, 2-(3-(6-(cyclobutyl(methyl)amino)pyridin-3-yl)-6-oxopyridazin-1(6H)-yl)-N-ethylacetamide] showed a 50% inhibitory concentration (IC50) of less than 10 µM.

For the setting “Table 4C”, `COc1ccc(-c2ccc(=O)n(CC(=O)NCc3cc(Cl)ccc3Cl)n2)cc1` came in with a 50% inhibitory concentration (IC50) of less than 10 µM. For `CCNC(=O)Cn1nc(-c2ccc(OC3CC(F)(F)C3)nc2)ccc1=O` [Compound I-75, 2-(3-(6-(3,3-difluorocyclobutoxy)pyridin-3-yl)-6-oxopyridazin-1(6H)-yl)-N-ethylacetamide], the half-inhibitory concentration (IC50) (Table 4A) was 10 to 100 µM. With `O=C(Cn1nc(-c2ccc(OCC(F)(F)F)cc2)ccc1=O)NCc1ccc(O)nc1` [II-20, N-((6-hydroxypyridin-3-yl)methyl)-2-(6-oxo-3-(4-(2,2,2-trifluoroethoxy)phenyl)pyridazin-1(6H)-yl)acetamide], the half-inhibitory concentration (IC50) (Table 4B) is greater than 100 µM.

Under “Table 4C”, `CC(CCNC(=O)Cn1nc(-c2ccccc2)ccc1=O)c1ccccc1` (stereo not drawn) [IIIc-53, 2-(6-oxo-3-phenylpyridazin-1(6H)-yl)-N-(3-phenylbutyl)acetamide] returned a concentration for half-maximal inhibition (IC50) of 10 to 100 µM. The same measure, in the same setting: to `COc1ccc(-c2ccc(=O)n(CC(=O)NCc3ccc(Cl)cc3Cl)n2)cc1` [IIIa-12, N-(2,4-dichlorobenzyl)-2-(3-(4-methoxyphenyl)-6-oxopyridazin-1(6H)-yl)acetamide] belongs less than 10 µM.

`CCNC(=O)Cn1nc(-c2ccc(NC3CCC3)nc2)ccc1=O` [Compound I-62, 2-(3-(6-(cyclobutylamino)pyridin-3-yl)-6-oxopyridazin-1(6H)-yl)-N-ethylacetamide] returned an IC50 (Table 4A) of less than 10 µM.

Turning to `CCNC(=O)Cn1nc(-c2ccc(NC34CCC(CC3)CC4)nc2)ccc1=O` [Compound I-41, 2-(3-(6-(bicyclo[2.2.2]octan-1-ylamino)pyridin-3-yl)-6-oxopyridazin-1(6H)-yl)-N-ethylacetamide], the IC50 (Table 4A) is 10 to 100 µM.

As to `CCNC(=O)Cn1nc(-c2ccc(OCC(F)(F)F)nc2)ccc1=O` [Compound I-13, N-ethyl-2-(6-oxo-3-(6-(2,2,2-trifluoroethoxy)pyridin-3-yl)pyridazin-1(6H)-yl)acetamide], where the note is “Table 4A”, the concentration for half-maximal inhibition (IC50) was 10 to 100 µM.

For `CC(C)NC(=O)Cn1nc(-c2ccc(OC(F)(F)F)cc2)ccc1=O` [II-4, N-isopropyl-2-(6-oxo-3-(4-(trifluoromethoxy)phenyl)pyridazin-1(6H)-yl)acetamide], the IC50 (Table 4B) was less than 10 µM. As to `O=C(Cn1nc(-c2ccccc2)ccc1=O)Nc1ccc(Cl)cc1Cl` [IIIc-54, N-(2,4-dichlorophenyl)-2-(6-oxo-3-phenylpyridazin-1(6H)-yl)acetamide], the 50% inhibitory concentration (IC50) (Table 4C) lay within 10 to 100 µM.

(Values after patent US20230293518A1 (Edgewise Therapeutics, Inc., priority 2020, published 2023).)
